Experimental data from patent US11970497B2, “Tricyclic AKR1C3 dependent KARS inhibitors” (Novartis AG, priority 2019, dated 2024).
Like-named read-outs stand apart in the source and are kept apart here.

Key:
[1] = system: Hara (NRF2 pathway wild type cell line with low AKR1C3 expression); assay: In vitro cell proliferation assay (CellTiter-Glo), Hara; format: cell-based; settings: 72 h, read-out: HARA Qualified absolute AC50
Excerpt: (§1) Cellular Proliferation Assay to Assess Compounds Activity in H460 (NRF2 Pathway Mutant Cell Line with High AKR1C3 Expression) and Hara (NRF2 Pathway Wild Type Cell Line with Low AKR1C3 Expression).
(§2) The cell lines A549 and H460 are NRF2 pathway mutant and specifically contain genetic alterations in KEAP1 (A549: G333C, H460: D236H) (Singh A. et al., 2006 PLoS Medicine 3(10) e420). In these cell lines the NRF2 pathway is constitutively active and these cells express high levels of NRF2 protein and NRF2 pathway target gene AKR1C3. […] They have low AKR1C3 expression.
(§3) In Vitro Cell Proliferation Assay
(§4) Day 1, for H460 800 cells/well or 40 μL of 2×10^4 cells/mL and for Hara 2000 cells/well or 40 μL of 5×10^4 cells/mL medium (RPMI-1640 supplemented with 10% fetal bovine serum and 1% penicillin/streptomycin) were seeded into 384-well tissue culture plates. Day 2, compounds were serially diluted 1:5 to generate 8 point dose response curves and added to cells for a final top concentration of 10 μM. DMSO (1%) control and MG132 (30 μM) controls are added in columns 23 and 24 respectively on each plate for positive and negative control. After incubation for 3 days at 37° C./5% CO2, 30 μl of CellTiter-Glo reagent (Promega) was added and the plates were incubated for 10 min on plate shaker. The amount of luminescence was determined using a Perkin Elmer Envision plate reader. CellTiter-Glo luminescence values of cells treated with DMSO and MG132 controls were used to normalize the data and calculate percentage activity and AC50s of compounds using the Helios Software suite.

[2] = system: H460 (NRF2 pathway mutant cell line with high AKR1C3 expression); assay: In vitro cell proliferation assay (CellTiter-Glo), H460; format: cell-based; settings: Homo sapiens, NCI-H460, 72 h, read-out: H460 Qualified absolute AC50
Excerpt: as §1, §2, §3, §4

[3] = Hara cells, 3 days, CellTiter-Glo, top concentration 10 μM
[4] = H460 cells, 3 days, CellTiter-Glo, top concentration 10 μM

O=C1CC2(CCN(C(=O)NCc3ccc(F)cc3OCC(F)(F)F)CC2)Nc2ccc(F)cc21 [Example 51, 6′-fluoro-N-(4-fluoro-2-(2,2,2-trifluoroethoxy)benzyl)-4′-oxo-3′,4′-dihydro-1′H-spiro[piperidine-4,2′-quinoline]-1-carboxamide]
AC50 [1, 3]: 4750 nM
AC50 [2, 4]: 128 nM

CN1c2ccc(F)cc2C(=O)CC12CCN(C(=O)NCc1ccc(F)c(NS(C)(=O)=O)c1)CC2 [Example 55, 6′-fluoro-N-(4-fluoro-3-(methylsulfonamido)benzyl)-1′-methyl-4′-oxo-3′,4′-dihydro-1′H-spiro[piperidine-4,2′-quinoline]-1-carboxamide]
AC50 [1, 3]: 5170 nM
AC50 [2, 4]: 150 nM

CN1c2ccc(F)cc2C(=O)CC12CCN(C(=O)NCc1ccc(F)c(CC(N)=O)c1)CC2 [Example 62, N-(3-(2-amino-2-oxoethyl)-4-fluorobenzyl)-6′-fluoro-1′-methyl-4′-oxo-3′,4′-dihydro-1′H-spiro[piperidine-4,2′-quinoline]-1-carboxamide]
AC50 [1, 3]: > 10000 nM
AC50 [2, 4]: 212 nM

CN1c2ccc(F)cc2C(=O)CC12CCN(C(=O)NCc1ccc(F)c(NCC(C)(C)C(=O)O)c1)CC2 [Example 140, 3-((2-fluoro-5-((6′-fluoro-1′-methyl-4′-oxo-3′,4′-dihydro-1′H-spiro[piperidine-4,2′-quinoline]-1-carboxamido)methyl)phenyl)amino)-2,2-dimethylpropanoic acid]
AC50 [1]: > 10000 nM
AC50 [2]: 2340 nM

CN1c2ccc(F)cc2[C@@H](O)CC12CCN(C(=O)NCc1ccc(F)cc1)CC2 (single isomer, unassigned) [Example 151b]
AC50 [1, 3]: 6070 nM
AC50 [2, 4]: 3400 nM

Nc1c(F)cc(CNC(=O)N2CCC3(CC2)CC(=O)c2cc(F)ccc2N3)cc1F [Example 65, N-(4-amino-3,5-difluorobenzyl)-6′-fluoro-4′-oxo-3′,4′-dihydro-1′H-spiro[piperidine-4,2′-quinoline]-1-carboxamide]
AC50 [1, 3]: > 10000 nM
AC50 [2, 4]: 222 nM

Nc1cc(F)c(CNC(=O)N2CCC3(CC2)CC(=O)c2cc(F)ccc2N3)c(F)c1 [Example 80, N-(4-amino-2,6-difluorobenzyl)-6′-fluoro-4′-oxo-3′,4′-dihydro-1′H-spiro[piperidine-4,2′-quinoline]-1-carboxamide]
AC50 [1, 3]: > 10000 nM
AC50 [2, 4]: 347 nM

O=C1CC2(CCN(C(=O)NCc3ccc(F)cc3)CC2)N(CCO)c2ccc(F)cc21 [Example 19, 6′-fluoro-N-(4-fluorobenzyl)-1′-(2-hydroxyethyl)-4′-oxo-3′,4′-dihydro-1′H-spiro[piperidine-4,2′-quinoline]-1-carboxamide]
AC50 [1, 3]: 694 nM
AC50 [2, 4]: 31 nM

O=C(NCC(F)(F)F)c1cc(CNC(=O)N2CCC3(CC2)CC(=O)c2cc(F)ccc2N3)ccc1F [Example 101, 6′-fluoro-N-(4-fluoro-3-((2,2,2-trifluoroethyl)carbamoyl)benzyl)-4′-oxo-3′,4′-dihydro-1′H-spiro[piperidine-4,2′-quinoline]-1-carboxamide]
AC50 [1, 3]: > 10000 nM
AC50 [2, 4]: 528 nM

O=C1CC2(CCN(C(=O)NCc3ccccc3)CC2)Nc2ccc(F)cc21 [Example 33, N-benzyl-6′-fluoro-4′-oxo-3′,4′-dihydro-1′H-spiro[piperidine-4,2′-quinoline]-1-carboxamide]
AC50 [1, 3]: 1190 nM
AC50 [2, 4]: 75 nM

Nc1ccc(CNC(=O)N2CCC3(CC2)CC(=O)c2cc(F)ccc2N3)cc1F [Example 56, N-(4-amino-3-fluorobenzyl)-6′-fluoro-4′-oxo-3′,4′-dihydro-1′H-spiro[piperidine-4,2′-quinoline]-1-carboxamide]
AC50 [1, 3]: > 10000 nM
AC50 [2, 4]: 166 nM

Nc1cc(F)ccc1CNC(=O)N1CCC2(CC1)CC(=O)c1cc(F)ccc1N2 [Example 137, N-(2-amino-4-fluorobenzyl)-6′-fluoro-4′-oxo-3′,4′-dihydro-1′H-spiro[piperidine-4,2′-quinoline]-1-carboxamide]
AC50 [1, 3]: > 10000 nM
AC50 [2, 4]: 2030 nM

NC(=O)c1cc(CNC(=O)N2CCC3(CC2)CC(=O)c2cc(F)cc(F)c2N3)ccc1F [Example 11, N-(3-carbamoyl-4-fluorobenzyl)-6′,8′-difluoro-4′-oxo-3′,4′-dihydro-1′H-spiro[piperidine-4,2′-quinoline]-1-carboxamide]
AC50 [1, 3]: > 10000 nM
AC50 [2, 4]: 23 nM

CN1c2ccc(F)cc2C(=O)CC12CCN(C(=O)NCc1ccc(F)c(OCCO)c1)CC2 [Example 3, 6′-fluoro-N-(4-fluoro-3-(2-hydroxyethoxy)benzyl)-1′-methyl-4′-oxo-3′,4′-dihydro-1′H-spiro[piperidine-4,2′-quinoline]-1-carboxamide]
AC50 [1, 3]: 1760 nM
AC50 [2, 4]: 5 nM

COc1cc(F)ccc1CNC(=O)N1CCC2(CC1)CC(=O)c1cc(F)ccc1N2 [Example 114, 6′-fluoro-N-(4-fluoro-2-methoxybenzyl)-4′-oxo-3′,4′-dihydro-1′H-spiro[piperidine-4,2′-quinoline]-1-carboxamide]
AC50 [1, 3]: 4430 nM
AC50 [2, 4]: 913 nM

CCN1c2ccc(F)cc2C(=O)CC12CCN(C(=O)NCc1ccc(F)cc1)CC2 [Example 6, 1′-ethyl-6′-fluoro-N-(4-fluorobenzyl)-4′-oxo-3′,4′-dihydro-1′H-spiro[piperidine-4,2′-quinoline]-1-carboxamide]
AC50 [1, 3]: > 10000 nM
AC50 [2, 4]: 9 nM

O=C(NCc1ccc(F)cc1O)N1CCC2(CC1)C[C@H](O)c1cc(F)ccc1N2 (single isomer, unassigned) [Example 154b]
AC50 [1, 3]: 749 nM
AC50 [2, 4]: 464 nM

CN1c2ccc(F)cc2C(=O)CC12CCN(C(=O)NCc1ccc(F)c([C@@H](N)C(F)(F)F)c1)CC2 [Example 149, (R)—N-(3-(1-amino-2,2,2-trifluoroethyl)-4-fluorobenzyl)-6′-fluoro-1′-methyl-4′-oxo-3′,4′-dihydro-1′H-spiro[piperidine-4,2′-quinoline]-1-carboxamide]
AC50 [1, 3]: > 10000 nM
AC50 [2, 4]: 5430 nM

Cc1noc(CNC(=O)N2CCC3(CC2)CC(=O)c2cc(F)ccc2N3)n1 [Example 134, 6′-fluoro-N-((3-methyl-1,2,4-oxadiazol-5-yl)methyl)-4′-oxo-3′,4′-dihydro-1′H-spiro[piperidine-4,2′-quinoline]-1-carboxamide]
AC50 [1, 3]: 94 nM
AC50 [2, 4]: 1780 nM

COCCNc1cc(F)ccc1CNC(=O)N1CCC2(CC1)CC(=O)c1cc(F)ccc1N2C [Example 20, 6′-fluoro-N-(4-fluoro-2-((2-methoxyethyl)amino)benzyl)-1′-methyl-4′-oxo-3′,4′-dihydro-1′H-spiro[piperidine-4,2′-quinoline]-1-carboxamide]
AC50 [1, 3]: > 10000 nM
AC50 [2, 4]: 33 nM

Cc1coc(C)c1CNC(=O)N1CCC2(CC1)CC(=O)c1cc(F)ccc1N2 [Example 34, N-((2,4-dimethylfuran-3-yl)methyl)-6′-fluoro-4′-oxo-3′,4′-dihydro-1′H-spiro[piperidine-4,2′-quinoline]-1-carboxamide]
AC50 [2, 4]: 75 nM

Nc1ccc(CNC(=O)N2CCC3(CC2)C[C@H](O)c2cc(F)ccc2N3)cc1F (single isomer, unassigned) [Example 170b]
AC50 [2, 4]: ≥ 17300 nM

O=C(NC/C=C/CO)c1cc(CNC(=O)N2CCC3(CC2)CC(=O)c2cc(F)ccc2N3)ccc1F [Example 122, (E)-6′-fluoro-N-(4-fluoro-3-((4-hydroxybut-2-en-1-yl)carbamoyl)benzyl)-4′-oxo-3′,4′-dihydro-1′H-spiro[piperidine-4,2′-quinoline]-1-carboxamide]
AC50 [2, 4]: 1110 nM
